Patent US11207312B2, “Metallo-beta-lactamase inhibitors and methods of use thereof” (priority 2017, dated 2021)
pIC50: −log10 of the molar value.

Assays:
[1] = test system: P. aeruginosa MB9799 (efflux-, IMP-1 plasmid); type: cell-based, Pseudomonas aeruginosa; settings: efflux − (MB9799) strain; imipenem at 2 μg/mL; in the presence of a class A, C, D serine β-lactamase inhibitor closely related to relebactam
In short: (§1)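 PAO1-derived isogenic pair (oprD+, inducible AmpC), efflux+ MB5919 or efflux− MB5890 parent, carrying an electroporated IMP-1 plasmid from a clinical isolate. Microbroth MIC with fixed imipenem and/or ceftazidime (usually CLSI breakpoint) plus fixed class A/C inhibitor; MBL inhibitor serially titrated, concentration restoring susceptibility recorded.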

IMP-1 = IMP-1 (Serratia marcescens, UniProt P52699); test: biochemical; settings: CCF2-FA fluorescence assay, 2 hours at 25° C.; read-out: IMP1 IC50
Chain of IMP-1 (P52699 whole entry, looked up, species assumed): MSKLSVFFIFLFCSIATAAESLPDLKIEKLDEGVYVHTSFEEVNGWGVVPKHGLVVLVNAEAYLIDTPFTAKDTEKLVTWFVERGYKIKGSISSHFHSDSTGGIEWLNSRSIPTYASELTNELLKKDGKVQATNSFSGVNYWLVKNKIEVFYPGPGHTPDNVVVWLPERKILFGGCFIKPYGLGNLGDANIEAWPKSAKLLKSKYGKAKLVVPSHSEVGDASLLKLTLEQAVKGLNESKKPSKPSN
In short: (§2)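 IC50s come from 4-parameter fits of inhibition versus inhibitor concentration, tested from 20 μM down to 0.00063 μM. Enzyme, CCF2-FA (1.25 μM) and inhibitor react 2 h at 25° C, pH 7, with 10 μM ZnSO4 and 0.005% Tween-20.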

VIM-1 = VIM-1 (Pseudomonas aeruginosa (strain ATCC 15692 / DSM 22644 / CIP 104116 / JCM 14847 / LMG 12228 / 1C / PRS 101 / PAO1), UniProt A0A0F7KYQ8); test: biochemical; settings: CCF2-FA fluorescence assay, 2 hours at 25° C.; read-out: VIM1 IC50
In short: as §2

[2] = test system: Serratia marcescens expressing IMP-1 (CL5741); type: cell-based; settings: with imipenem 1 μg/ml; 95% inhibition of bacterial growth
In short: (§3)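 Imipenem 1 μg/ml + inhibitor titration in cation-adjusted MHB (1.1× stock medium); overnight-cultured colonies suspended in saline, diluted 1:100. 35 °C, 22–24 h; absorbance read. MITC95 = lowest compound conc giving 95% growth inhibition.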

[3] = test system: Escherichia coli expressing NDM-1 (CLB30016); type: cell-based; settings: with imipenem 1 μg/ml; 95% inhibition of bacterial growth
In short: as §3

[4] = test system: Klebsiella pneumoniae expressing VIM-1 (IHMA599644); type: cell-based; settings: with imipenem 1 μg/ml; 95% inhibition of bacterial growth
In short: as §3

NDM-1 = NDM-1 (Klebsiella pneumoniae, UniProt C7C422); test: biochemical; type: biochemical; settings: CCF2-FA fluorescence assay, 2 hours at 25° C.
Chain of NDM-1 (C7C422 whole entry, looked up, species assumed): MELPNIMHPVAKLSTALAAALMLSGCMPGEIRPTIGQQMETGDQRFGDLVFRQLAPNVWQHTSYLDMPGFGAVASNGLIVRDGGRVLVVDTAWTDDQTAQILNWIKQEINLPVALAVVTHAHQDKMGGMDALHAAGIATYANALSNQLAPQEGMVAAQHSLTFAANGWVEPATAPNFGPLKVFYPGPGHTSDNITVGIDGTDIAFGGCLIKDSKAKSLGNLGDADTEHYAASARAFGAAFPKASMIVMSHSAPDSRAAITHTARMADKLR
In short: as §2

[5] = test system: P. aeruginosa MB9798 (efflux+, IMP-1 plasmid); settings: for MB9798 MITC95 P. aeruginosa uM Efflux WT: efflux + (MB9798) strain, imipenem at 2 μg/mL, in the presence of a class A, C, D serine β-lactamase inhibitor closely related to relebactam; for Efflux ratio: fold difference between efflux+ (MB9798) and efflux− (MB9799) strains
In short: as §1

VIM-2 = VIM-2 (Escherichia coli, UniProt Q5U7L7); test: biochemical; settings: CCF2-FA fluorescence assay; read-out: VIM2 IC50

Compound | MB9799 MITC95 P. aeruginosa uM Efflux Mutant [1] [µM] | pIC50 (IMP-1) | pIC50 (VIM-1) | CL5741 S. marcescens MITC95 IMP [2] [µM] | CLB30016 E. coli MITC95 NDM [3] [µM] | IHMA599644 K. pneumoniae MITC95 VIM [4] [µM] | pIC50 (NDM-1) | MB9798 MITC95 P. aeruginosa uM Efflux WT [5] [µM] | Efflux ratio [5] | pIC50 (VIM-2)
NCCCC1CCN(c2ccc(S(=O)(=O)NC[C@H](O)CN)c(S(N)(=O)=O)c2-c2nn[nH]n2)CC1 [Example 193, (R)-N1-(3-amino-2-hydroxypropyl)-4-(4-(3-aminopropyl)piperidin-1-yl)-3-(2H-tetrazol-5-yl)benzene-1,2-disulfonamide] | 0.78 | 9.17 | 10.12 | 1.56 | 1.56 | 1.56 | 9.32 | 0.78 | 1.00 | 9.12
NS(=O)(=O)c1c(S(=O)(=O)N[C@@H]2CCNC2)ccc(N2CC3(CCNCC3)C2)c1-c1nnn[nH]1 [Example 113, 4-(2,7-diazaspiro[3.5]non-2-yl)-N1-[(3R)-pyrrolidin-3-yl]-3-(1H-tetrazol-5-yl)benzene-1,2-disulfonamide] | 0.78 | 7.48 | 9.09 | 1.56 | 0.78 | 1.56 | 7.86 | 6.25 | 8.00 | 6.93
C[C@H](CN)NS(=O)(=O)c1ccc(N2CCC(CCN)CC2)c(-c2nn[nH]n2)c1S(N)(=O)=O [Example 185, (R)-4-(4-(2-aminoethyl)piperidin-1-yl)-N1-(1-aminopropan-2-yl)-3-(2H-tetrazol-5-yl)benzene-1,2-disulfonamide] | 0.78 | 9.22 | 10.40 | 1.56 | 0.78 | 1.56 | 9.48 | 0.78 | 1.00 | 9.15
NC(=O)C1CCN(c2ccc(S(=O)(=O)N[C@@H]3CCNC3)c(S(N)(=O)=O)c2-c2nnn[nH]2)CC1 [Example 94, 1-{4-[(3R)-pyrrolidin-3-ylsulfamoyl]-3-sulfamoyl-2-(1H-tetrazol-5-yl)phenyl}piperidine-4-carboxamide] | 3.13 | 9.30 | 9.57 | 6.25 | 3.13 | 6.25 | 9.74 | 3.13 | 1.00 | 8.93
NC[C@@H](O)CNS(=O)(=O)c1ccc(N2CC[C@@H](N)[C@@H](F)C2)c(-c2nn[nH]n2)c1S(N)(=O)=O [Example 207, N1-((R)-3-amino-2-hydroxypropyl)-4-((3S,4R)-4-amino-3-fluoropiperidin-1-yl)-3-(2H-tetrazol-5-yl)benzene-1,2-disulfonamide] | 1.56 | 7.60 | 9.07 | 0.20 | 0.39 | 0.78 | 7.82 | 1.56 | 1.00 | 7.59
NS(=O)(=O)c1c(S(=O)(=O)N[C@@H]2CCNC2)ccc(NCCN2CCOCC2)c1-c1nnn[nH]1 [Example 64, 4-[(2-morpholin-4-ylethyl)amino]-N1-[(3R)-pyrrolidin-3-yl]-3-(1H-tetrazol-5-yl)benzene-1,2-disulfonamide] | 1.56 | 8.49 | 8.79 | 1.56 | 1.56 | 6.25 | 8.26 | 25.00 | 15.99 | 8.09
NCCC1CCN(c2ccc(S(=O)(=O)N[C@@H](CN)CO)c(S(N)(=O)=O)c2-c2nn[nH]n2)CC1 [Example 187, (S)-N1-(1-amino-3-hydroxypropan-2-yl)-4-(4-(2-aminoethyl)piperidin-1-yl)-3-(2H-tetrazol-5-yl)benzene-1,2-disulfonamide] | 0.39 | 9.62 | 10.52 | 0.78 | 0.78 | 0.78 | 9.89 | 0.39 | 1.00 | 9.31
CN(C)[C@H]1CCN(c2ccc(S(=O)(=O)N[C@@H]3CCNC3)c(S(N)(=O)=O)c2-c2nnn[nH]2)C1 [Example 67, 4-[(3S)-3-(dimethylamino)pyrrolidin-1-yl]-N1-[(3R)-pyrrolidin-3-yl]-3-(1H-tetrazol-5-yl)benzene-1,2-disulfonamide] | 1.56 | 7.22 | 8.36 | 3.13 | 1.56 | 1.56 | 7.07 | 12.50 | 8.00 | 7.73
N[C@@H]1CCN(c2ccc(S(=O)(=O)N[C@@H]3CCNC3)c(S(N)(=O)=O)c2-c2nn[nH]n2)C[C@@H]1F [Example 198, 4-((3S,4R)-4-amino-3-fluoropiperidin-1-yl)-N1-((R)-pyrrolidin-3-yl)-3-(2H-tetrazol-5-yl)benzene-1,2-disulfonamide] | 0.78 | 8.25 | 9.70 | 0.20 | 0.39 | 0.39 | 8.74 | 0.78 | 1.00 | 7.96
NC[C@@H](O)CNS(=O)(=O)c1ccc(N2C[C@H]3CNC[C@H]3C2)c(-c2nn[nH]n2)c1S(N)(=O)=O [Example 161, N1-((R)-3-amino-2-hydroxypropyl)-4-((3aR,6aS)-hexahydropyrrolo[3,4-c]pyrrol-2(1H)-yl)-3-(2H-tetrazol-5-yl)benzene-1,2-disulfonamide] | 6.25 | 7.34 | 9.05 | 3.13 | 1.56 | 1.56 | 7.91 | 12.50 | 2.00 | 7.83
NS(=O)(=O)c1c(S(=O)(=O)N[C@@H]2CCNC2)ccc(N2CCCC(=O)C2=O)c1-c1nn[nH]n1 [Example 151, (R)-4-(2,3-dioxopiperidin-1-yl)-N1-(pyrrolidin-3-yl)-3-(2H-tetrazol-5-yl) benzene-1,2-disulfonamide] | 3.13 | 8.17 | 8.94 | 1.56 | 0.39 | 6.25 | 9.28 | 12.50 | 4.00 | 8.23
NC[C@@H](O)CNS(=O)(=O)c1ccc(N2CCC(O)CC2)c(-c2nn[nH]n2)c1S(N)(=O)=O [Example 120, (R)-N1-(3-amino-2-hydroxypropyl)-4-(4-hydroxypiperidin-1-yl)-3-(2H-tetrazol-5-yl)benzene-1,2-disulfonamide] | 1.56 | 9.12 | 9.59 | 1.56 | 1.56 | 3.13 | 9.25 | 1.56 | 1.00 | 9.10
